The values that follow come from publication PMC9227536, “Prediction of Pharmacokinetics of IDP-73152 in Humans Using Physiologically-Based Pharmacokinetics” (Pharmaceutics, 2022).

Each structure is given as a SMILES string.

Data set [1] in a line: Blood partitioning (LC-MS/MS-based depletion method), mouse. The data set is classed as in vitro ADME. Conditions: whole blood, mice blood, 0.3, 1, 3 μM, read-out: BP (blood-to-plasma concentration ratio). As to the method:
In this study, the partitioning of IDP-73152 in blood samples obtained from mice, rats, dogs, and humans was determined using the LC-MS/MS-based depletion method with slight modifications. DP-73152 was added to an aliquot (1 mL) of blank blood or plasma at a final concentration of 0.3, 1, or 3 μM. The mixture was incubated at 37 °C in a water bath for 60 min. After the incubation, the plasma was separated by centrifugation of the blood samples for 5 min at 10,000× g/4 °C and stored at -80 °C until analysis. The blood-to-plasma concentration ratio (BP) was calculated using the equation:(3) BP=[…], where […] is the concentration of the compound at the corresponding blood concentration in the plasma, and CPL is the concentration from the plasma sample separated from the incubated blood.

Data set [2] in a line: Metabolic stability in liver microsomes, rat. The data set is classed as in vitro ADME. The method, then:
In this study, the metabolic stability of IDP-73152 in microsomes from mice, rats, dogs, and humans, as well as rat hepatocytes, was determined. For a microsomal incubation study, the incubation mixtures, containing mouse, rat, dog, or human liver microsomes at a protein concentration of 0.5 mg/mL, 3.3 mM MgCl2, and 1.3 mM NADPH, in a 100 mM potassium phosphate buffer (pH 7.4), were preincubated for 3 min at 37 °C. In parallel, a control incubation mixture (i.e., identical composition to that of the incubation mixture without NADPH) was also prepared for comparison. The reaction was initiated by the addition of a 10 × solution of IDP-73152 (final concentration in mixtures of 1 μM) to the incubation mixtures or the control incubation mixtures. The mixtures were incubated in a shaking water bath (37 °C, 90 rpm). Aliquots (30 μL) were collected at 0, 15, 30, and 45 min from the mixture and the reaction was terminated by the addition of a 4-fold volume of ice-cold acetonitrile to the sample. The mixture was then vortexed for 5 min and centrifuged for 10 min at 10,000× g. The supernatant was collected and stored at -80 °C until the analysis. For the hepatocyte incubation study, rat hepatocytes were freshly prepared using the two-step collagenase perfusion method with slight modifications. After the isolation, cell viability during the preparation process was first determined by a trypan blue exclusion assay prior to the stability study. The preparation was considered adequate for subsequent studies if the viability was greater than 80%. When appropriate, the hepatocytes were resuspended in Williams' media E containing 10% fetal bovine serum, 1% penicillin-streptomycin, and 0.01% insulin-transferrin-selenium (i.e., 10 mg/mL insulin, 5.5 mg/mL transferrin, and 5 mg/mL selenium) at pH 7.4. The reaction was carried out with the hepatocyte suspension prepared at 1 × 10^6 cells/mL (0.5 mL) and initiated by the addition of equal volume of IDP-73152 solution (i.e., final concentration of the compound at 1 μM in 0.5 × 10^6 cells/mL of hepatocytes) to the hepatocyte suspension. […] Assuming first-order disappearance kinetics, the slope k of the logarithmically transformed IDP-73152 concentration in the sample versus time plot was determined by the linear regression analysis of the data. The total intrinsic clearance (CLint,mic, μL/min/mg protein for microsomal incubation study and CLint,hep, μL/min/million cells for hepatocytes incubation study) was then calculated using the following equations:(4) CLint, mic=k×Volume of incubation medium (μL)/Protein in incubation medium (mg) (5) CLint,hep=k×Volume of incubation (μL)/Number of cells in incubation (×10^6) The unbound intrinsic clearance, with respect to the whole liver ([…]), was then estimated for the two cases. […]
On the technique in general: Liver microsomes are vesicles of endoplasmic reticulum, rich in cytochrome P450 enzymes.

A further data set is described as follows: Stability in plasma, rat. The data set is classed as in vitro ADME, rats. The method, then: The unbound fractions of IDP-73152 in various matrices were measured according to the manufacturer's instructions for the rapid equilibrium dialysis (RED) device (ThermoFisher Scientific, Waltham, MA, USA). Briefly, IDP-73152 was added to the plasma or the microsomal/hepatocyte incubation buffer from various species (i.e., mouse, rat, dog, and human for microsomal incubation; rat for hepatocyte incubation) to obtain final concentrations of the compound at 0.3, 1, and 3 μM. After the membrane insert was placed in the RED plate, the solution containing IDP-73152 was added (400 μL) to the sample chamber, and the dialysis buffer (600 μL) was added to the buffer chamber. The RED plate was sealed with parafilm and then incubated at 37 °C in the orbital shaker (Lab Companion, Daejeon, Korea) at 100 rpm for 5 h. […] The IDP-73152 concentration in the buffer/sample chambers (i.e., CBuffer Chamber and CSample Chamber) was determined by an assay. Thus, the fraction unbound was defined as:(2) % Fraction unbound=(CBuffer Chamber/CSample Chamber)×100% When necessary, the stability of IDP-73152 in the matrix was also determined at 5 h. […] Accordingly, the kinetics of IDP-73152 instability were determined in the rat blood at a final concentration of 0.3 μM. […]

For the molecule `CC(C)(C)[C@H](NC(=O)[C@H](CC1CCCC1)CN(O)C=O)C(=O)N1CCC(NCc2cc(F)c(F)cc2F)CC1` [IDP-73152], the blood plasma ratio at 60 min in data set [1] turned out to be 1.31 ± 0.13. For the same molecule, the CLhep predicted at 1 μM in data set [2] (rat, liver microsomes, pH 7.4, rats, read-out: CLh calculated from the CLint,mic (converted)) is 28.2 mL/min/kg. Further, the microsomal CLint at 1 μM in data set [2] (rat, pH 7.4, rats liver microsomes 0.5 mg/mL, 1 μM, read-out: CLint,mic) was determined as 72 ± 2.6 µL/min/mg. Moreover, the “hepatic ER (extraction ratio)” value in data set [2] (rats, from microsomal clearance, well-stirred model) is listed as 0.222 ± 0.006. Moreover, the “CLu,int,H” value in data set [2] (rats, scaled up to the whole liver from microsomes) turned out to be 7.46 ± 0.27 L/h. Further, the “stability in blood and plasma” value in “Stability in plasma, rat” (rat blood and plasma, preliminary study) is listed as “unstable”. The “percentage remaining in plasma at 5 h” value in the data set “Stability in plasma, rat” (rats plasma, 5 h, 37 °C) turned out to be 65.3 ± 13.7%.
